These are literature values, as cited in patent EP0147926B1, “Oral anti-cancer compositions” (priority 1983, dated 1985).

In data set [1] the test system is ADJ/PC6A plasmacytoma. Particulars: administered orally.
Data set [2] relates to P388 lymphocytic leukaemia. As to conditions: administered orally.

Structures are written as SMILES.

On to `N.N.O=C([O-])C1(C(=O)[O-])CCC1.[Pt+2]` [cis-[diammine-(1,1-cyclobutanedicarboxylato)platinum(II)l], for which the activity result in data set [1] and in data set [2] was “insignificant activity” throughout.
